In BigSolDB 2.1:

c1ccc(CSSCc2ccccc2)cc1
Details | solubility (mole fraction)
in chloroform, 284.95 K | 0.102
in chloroform, 288.75 K | 0.131
in chloroform, 292.75 K | 0.16
in chloroform, 298.65 K | 0.208
in chloroform, 302.6 K | 0.246
in chloroform, 308.15 K | 0.291
in ethanol, 284.7 K | 0.000168
in ethanol, 289.45 K | 0.000398
in ethanol, 294.45 K | 0.000905
in ethanol, 299.55 K | 0.0019
in ethanol, 303.25 K | 0.00301
in ethanol, 308.25 K | 0.00524
in ethyl acetate, 285.55 K | 0.0332
in ethyl acetate, 289.95 K | 0.05
in ethyl acetate, 293.65 K | 0.0667
in ethyl acetate, 298.8 K | 0.0963
in ethyl acetate, 303.65 K | 0.131
in ethyl acetate, 308.4 K | 0.164
in n-hexane, 284.25 K | 0.000922
in n-hexane, 288.35 K | 0.0019
in n-hexane, 294.45 K | 0.00448
in n-hexane, 298.25 K | 0.00739
in n-hexane, 303.65 K | 0.0137
in n-hexane, 309.05 K | 0.0223
in toluene, 283.45 K | 0.0521
in toluene, 288.16 K | 0.0769
in toluene, 292.65 K | 0.103
in toluene, 299.35 K | 0.162
in toluene, 303.15 K | 0.198
in toluene, 308.65 K | 0.248
